Experimental data taken from patent US20150368230A1, “RADIOLABELED QUINAZOLINE DERIVATIVES” (priority 2013, published 2015).

Legend:
[1] = Metabolite analysis in plasma after injection of tracer; assay type: in vivo, Balb/C mice; settings: for Parent (%): plasma
Procedure: The mice were sacrificed at 15 (n=4) and 45 (n=4) min post-injection. At these time points, about 1.5 mL of blood was collected via a heart puncture. […] The cartridge was washed with 5 mL of H2O to collect polar radioactive metabolites. Thereafter, the tC2 Sep-Pak cartridge was eluted with 2 mL of MeOH and 1 mL of H2O to collect the mixture of apolar metabolites. […] HPLC was performed on a Dionex Ultimate 3000 system, equipped with a 1 mL loop. As a stationary phase a Phenomenex Gemini C18, 250×10 mm, 5 μm was used.

[2] = tested on: A549 xenograft; test: Biodistribution studies, A549 tumor bearing mice; assay type: in vivo, nude mice (nu/nu); settings: 5 minutes p.i.
Procedure: (§1) The mice were sacrificed and dissected at 5, 30, 60 and 120 minutes post-injection. Blood, urine, skin, left tumor, right tumor, muscle, heart, lung, liver, kidney and brain were collected, weighed and counted for radioactivity in a Wallac Compugamma 1210 counter (n=3 for each time point). Biodistribution data are expressed as percentage of injected dose per gram (% ID/g) tissue for each organ (FIG. 2).

[3] = tested on: H1975 xenograft; test: Biodistribution studies, H1975 tumor bearing mice; assay type: in vivo, nude mice (nu/nu); settings: 5 minutes p.i.
Procedure: as §1

[4] = tested on: HCC827 xenograft; test: Biodistribution studies, HCC827 tumor bearing mice; assay type: in vivo, nude mice (nu/nu); settings: 5 minutes p.i.
Procedure: as §1

[5] = tested on: A549, H1975 or HCC827 xenografts; test: Biodistribution studies, statements for all investigated tumor types; assay type: in vivo, nude mice (nu/nu)
Procedure: as §1

[6] = tested on: A549 xenograft; test: Dynamic PET imaging, A549 xenograft; assay type: in vivo, nude mice; settings: A549 (insensitive), no blocking
Procedure: (§2) Dynamic PET imaging was performed on three cancer xenograft (A549, H1975 and HCC827) lines in nude mice. Each mouse (n=3) carried one tumor of the same cancer xenograft line, which were located on the left or right flank. Imaging was performed for a duration of 120 min using a double-LSO/LYSO layer high-resolution research tomograph (HRRT; CTI/Siemens, Knoxville, Tenn., USA). The mice were anesthetized with 4% and 2% isoflurane in 1 L·min^−1 oxygen for induction and maintenance, respectively. First, for attenuation and scatter correction, a transmission scan was acquired using a 740-MBq two-dimensional (2D) fan-collimated ^137Cs (662 keV) moving point source. […] Positron emission scans were acquired in list mode and rebinned into the following frame sequence: 10×60 s, 4×300 s, and 9×600 s. After 120 min, [^18F]FDG was administered (I.V. ocular plexus) to the mice followed by scanning for another 60 min. Following corrections for decay, dead time, scatter and randoms, scans were reconstructed using an iterative 3D ordered-subsets weighted least-squares analysis (3D-OSWLS). Point source resolution varied across the field of view from approximately 2.3 to 3.2-mm full width at half maximum in the transaxial direction and from 2.5 to 3.4 mm in the axial direction. Post-filtering was not performed after reconstruction.

[7] = tested on: H1975 xenograft; test: Dynamic PET imaging, H1975 xenograft; assay type: in vivo, nude mice; settings: H1975 (insensitive), no blocking
Procedure: as §2

[8] = PET imaging with cold afatinib added to the tracer injection; assay type: in vivo, mice; settings: cold dose of 100 ng afatinib added
Text: Showing that imaging of the tumor should be done at high specific activity.

[9] = tested on: P-gp; test: PET imaging with P-gp blocking by tariquidar

in vivo stability of the tracer ([1]; metabolic profile of table 1): excellent in vivo stability
Parent (%) ([1]; 15 min p.i.): 87.5 ± 0.8%
Parent (%) ([1]; 45 min p.i.): 83.3 ± 1.3%
blood level of the tracer [2]: 2.17 % ID/g
blood level of the tracer [3]: 1.59 % ID/g
blood level of the tracer [4]: 1.56 % ID/g
uptake in the metabolic organs (kidney and liver) ([5]; mouse, in vivo): rapid and high uptake
activity remained in the tumor ([5]; tumors, 120 minutes p.i.): around 1 % ID/g
tumor uptake with cold afatinib co-injected [8]: reduced to background levels
brain uptake ([9]; P-gp active (no block)): washed out from the brain
brain uptake ([9]; P-gp blocked with tariquidar): remains in the brain
P-gp substrate status ([9]; absolute tumor uptake increased when P-gp blocked): substrates
washout after P-gp blocking ([9]; tumor, tariquidar block): hardly shows any washout
Structure (SMILES): CN(C)C/C=C/C(=O)Nc1cc2c(Nc3ccc([18F])c(Cl)c3)ncnc2cc1O[C@H]1CCOC1 [[^18F]afatinib, [^18F](S,E)-N-(4-((3-chloro-4-fluorophenyl)amino)-7-((tetrahydrofuran-3-yl)oxy)quinazolin-6-yl)-4-(dimethylamino)but-2-enamide]
uptake in tumor compared to background [6]: hardly an increase of uptake in the tumors compared to the background
uptake in tumor compared to background [7]: hardly an increase of uptake in the tumors compared to the background
